Data on nine molecules can be found in patent US8143255B2, “Heteroalkyl linked pyrimidine derivatives” (S*BIO Pte Ltd., priority 2005, dated 2012).

Experiment [1] relates to MV4-11 (acute myeloid leukemia cell line). Description: Cell-based proliferation assay, MV4-11. The conditions noted are these: Homo sapiens; MV4-11 cells, 96 h treatment. How it is done:
(§1) Human cancer cell lines HL60 (acute myeloid leukemia cell line), Colo205 (colon adenocarcinoma cell line), HEL92.1.7 (erythroleukemia cell line), MV4-11 (acute myeloid leukemia cell line) and DU145 (metastatic prostate cancer cell line) were obtained from ATCC. They were cultivated in the media according to the ATCC work instructions. Colo205 and DU145 cells were seeded in 96-wells plate 5000 cells per cell and 1000 cells per well respectively. HEL92.1.7 and MV4-11 cells were seeded at 6000 cells per well while HL60 cells were seeded at 8000 cells per well in 96 well plate. The plates were incubated at 37° C., 5% CO2, for 24 h. Cells were treated with compounds at various concentrations for 96 h. Cell growth was then monitored using Celltiter96 Aqueous One Solution Cell Proliferation Assay from Promega (Madison Wis.). Dose response curves were plotted to determine GI50 values for the compounds using XL-fit (ID Business Solution, Emeryville, Calif.).

Experiment [2] deals with HEL92.1.7 (erythroleukemia cell line). Description: Cell-based proliferation assay, HEL92.1.7. The settings on record: Homo sapiens, HEL 92.1.7; HEL92.1.7 cells, 96 h treatment. How it is done: as §1
Experiment [3] addresses T1, JAK2 (Homo sapiens, UniProt O60674).
T1 construct: purchased Invitrogen PV4210
Description: In vitro kinase activity assay (PKLight), JAK2. It is filed as biochemical. The conditions noted are these: recombinant JAK2, poly(Glu,Ala,Tyr) substrate, 0.2 μM ATP. Here is the method: (§2) All assays were carried out in 384-well white microtiter plates using the PKLight assay system from Cambrex (East rutherford, N.J.). This assay platform is essentially a luminometdc assay for the detection of ATP in the reaction using a luciferase-coupled reaction. For CDK2/Cyclin A assay, the reaction mixture consisted of the following components in 25 μL assay buffer (50 mM Hepes pH 7.5, 10 mM MgCl2, 5 mM MnCl2, 5 mM BGP, 1 mM DTT, 0.1 mM sodium orthovanadate), 1.4 μg/mL of CDK2/Cyclin A complex, 0.5 μM of RbING substrate (Invitrogen, Cat # PV2939) and 0.5 μM of ATP. The compounds were tested at 8 concentrations prepared from 4-fold serial dilution starting at 10 μM. The reaction was incubated at room temperature for 2 hr. 13 μL of PKLight ATP detection reagent was added and the reaction was incubated for 10 min. Luminescence signals were detected on a multi-label plate reader (Victor^2 V 1420, Perkin-Elmer). The other kinase assays were identical except for the following differences in reagents. For FLT3 assays, the reaction contained 2.0 μg/mL FLT3 enzyme, 5 μM of poly(Glu,Tyr) substrate (Sigma, Cat # P0275) and 4 μM of ATP. For JAK2 assays, the reaction contained 0.6 μg/mL of JAK2 enzyme, 2 μM of poly(Glu,Ala,Tyr) substrate (Sigma, Cat # P3899) and 0.2 μM of ATP. […] The analytical software, Prism 4.0 (GraphPad Software Pte Ltd) was used to generate IC50 values from the data.

For experiment [4], the system named is Colo205 (colon adenocarcinoma cell line). In words: Cell-based proliferation assay, Colo205. The conditions noted are these: Homo sapiens, COLO 205; Colo205 cells, 96 h treatment. Here is the method: as §1
Experiment [5] concerns DU145 (metastatic prostate cancer cell line). Description: Cell-based proliferation assay, DU145. The settings on record: Homo sapiens, DU-145; DU145 cells, 96 h treatment. Here is the method: as §1
Experiment [6] concerns the target T2, FLT3 (Homo sapiens, UniProt P36888).
T2 construct: purchased Invitrogen PV3182
T2 sequence (P36888 27-993): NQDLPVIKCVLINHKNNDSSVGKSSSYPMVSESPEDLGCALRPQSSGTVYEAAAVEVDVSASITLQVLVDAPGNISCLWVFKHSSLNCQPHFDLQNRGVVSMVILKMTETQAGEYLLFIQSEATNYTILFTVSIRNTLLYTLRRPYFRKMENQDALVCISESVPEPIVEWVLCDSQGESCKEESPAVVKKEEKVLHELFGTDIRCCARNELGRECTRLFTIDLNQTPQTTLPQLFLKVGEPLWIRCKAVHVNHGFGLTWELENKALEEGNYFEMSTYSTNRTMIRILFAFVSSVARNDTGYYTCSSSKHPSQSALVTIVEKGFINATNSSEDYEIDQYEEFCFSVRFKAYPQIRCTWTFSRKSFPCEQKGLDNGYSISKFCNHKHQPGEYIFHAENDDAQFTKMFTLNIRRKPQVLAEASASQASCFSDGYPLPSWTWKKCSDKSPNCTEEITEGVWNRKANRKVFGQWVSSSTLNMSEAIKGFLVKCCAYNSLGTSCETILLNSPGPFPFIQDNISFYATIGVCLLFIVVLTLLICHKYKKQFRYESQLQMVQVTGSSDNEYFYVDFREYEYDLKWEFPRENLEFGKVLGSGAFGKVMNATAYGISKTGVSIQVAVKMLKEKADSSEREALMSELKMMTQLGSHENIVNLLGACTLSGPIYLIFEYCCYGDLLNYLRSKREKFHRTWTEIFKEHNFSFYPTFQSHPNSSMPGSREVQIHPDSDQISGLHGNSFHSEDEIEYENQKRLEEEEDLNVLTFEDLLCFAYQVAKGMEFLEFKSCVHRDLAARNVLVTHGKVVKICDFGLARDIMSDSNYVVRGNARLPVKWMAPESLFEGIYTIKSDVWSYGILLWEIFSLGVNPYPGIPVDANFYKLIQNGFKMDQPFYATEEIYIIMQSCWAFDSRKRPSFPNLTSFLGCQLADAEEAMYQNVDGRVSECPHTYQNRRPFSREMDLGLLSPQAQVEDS
Description: In vitro kinase activity assay (PKLight), FLT3. The conditions noted are these: recombinant FLT3, poly(Glu,Tyr) substrate, 4 μM ATP. It counts as biochemical. Here is the method: The recombinant enzymes (CDK2/CyclinA, FLT3, JAK2 and JAK2 V617F) were purchased from Invitrogen (Cat # PV3267, 3182, 4210 and 4347 respectively). All assays were carried out in 384-well white microtiter plates using the PKLight assay system from Cambrex (East rutherford, N.J.). This assay platform is essentially a luminometdc assay for the detection of ATP in the reaction using a luciferase-coupled reaction. For CDK2/Cyclin A assay, the reaction mixture consisted of the following components in 25 μL assay buffer (50 mM Hepes pH 7.5, 10 mM MgCl2, 5 mM MnCl2, 5 mM BGP, 1 mM DTT, 0.1 mM sodium orthovanadate), 1.4 μg/mL of CDK2/Cyclin A complex, 0.5 μM of RbING substrate (Invitrogen, Cat # PV2939) and 0.5 μM of ATP. The compounds were tested at 8 concentrations prepared from 4-fold serial dilution starting at 10 μM. The reaction was incubated at room temperature for 2 hr. 13 μL of PKLight ATP detection reagent was added and the reaction was incubated for 10 min. Luminescence signals were detected on a multi-label plate reader (Victor^2 V 1420, Perkin-Elmer). The other kinase assays were identical except for the following differences in reagents. For FLT3 assays, the reaction contained 2.0 μg/mL FLT3 enzyme, 5 μM of poly(Glu,Tyr) substrate (Sigma, Cat # P0275) and 4 μM of ATP. For JAK2 assays, the reaction contained 0.6 μg/mL of JAK2 enzyme, 2 μM of poly(Glu,Ala,Tyr) substrate (Sigma, Cat # P3899) and 0.2 μM of ATP. For JAK2 V617F mutant assays, the reaction contained 8.0 μg/mL of JAK2 mutant enzyme, 2 μM of poly(Glu,Ala,Tyr) substrate (Sigma, Cat # P3899) and 0.2 μM of ATP. The analytical software, Prism 4.0 (GraphPad Software Pte Ltd) was used to generate IC50 values from the data. […] IC50 values are shown below in Table 3.

The test system of experiment [7] is HL60 (acute myeloid leukemia cell line). In words: Cell-based proliferation assay, HL60. The conditions noted are these: Homo sapiens, HL-60; HL60 cells, 96 h treatment. How it is done:
as §1

For experiment [8], the target named is T3, JAK2 V617F (Homo sapiens, UniProt O60674, V617F).
T3 construct: purchased Invitrogen PV4347
T3 sequence (O60674 whole entry V617F): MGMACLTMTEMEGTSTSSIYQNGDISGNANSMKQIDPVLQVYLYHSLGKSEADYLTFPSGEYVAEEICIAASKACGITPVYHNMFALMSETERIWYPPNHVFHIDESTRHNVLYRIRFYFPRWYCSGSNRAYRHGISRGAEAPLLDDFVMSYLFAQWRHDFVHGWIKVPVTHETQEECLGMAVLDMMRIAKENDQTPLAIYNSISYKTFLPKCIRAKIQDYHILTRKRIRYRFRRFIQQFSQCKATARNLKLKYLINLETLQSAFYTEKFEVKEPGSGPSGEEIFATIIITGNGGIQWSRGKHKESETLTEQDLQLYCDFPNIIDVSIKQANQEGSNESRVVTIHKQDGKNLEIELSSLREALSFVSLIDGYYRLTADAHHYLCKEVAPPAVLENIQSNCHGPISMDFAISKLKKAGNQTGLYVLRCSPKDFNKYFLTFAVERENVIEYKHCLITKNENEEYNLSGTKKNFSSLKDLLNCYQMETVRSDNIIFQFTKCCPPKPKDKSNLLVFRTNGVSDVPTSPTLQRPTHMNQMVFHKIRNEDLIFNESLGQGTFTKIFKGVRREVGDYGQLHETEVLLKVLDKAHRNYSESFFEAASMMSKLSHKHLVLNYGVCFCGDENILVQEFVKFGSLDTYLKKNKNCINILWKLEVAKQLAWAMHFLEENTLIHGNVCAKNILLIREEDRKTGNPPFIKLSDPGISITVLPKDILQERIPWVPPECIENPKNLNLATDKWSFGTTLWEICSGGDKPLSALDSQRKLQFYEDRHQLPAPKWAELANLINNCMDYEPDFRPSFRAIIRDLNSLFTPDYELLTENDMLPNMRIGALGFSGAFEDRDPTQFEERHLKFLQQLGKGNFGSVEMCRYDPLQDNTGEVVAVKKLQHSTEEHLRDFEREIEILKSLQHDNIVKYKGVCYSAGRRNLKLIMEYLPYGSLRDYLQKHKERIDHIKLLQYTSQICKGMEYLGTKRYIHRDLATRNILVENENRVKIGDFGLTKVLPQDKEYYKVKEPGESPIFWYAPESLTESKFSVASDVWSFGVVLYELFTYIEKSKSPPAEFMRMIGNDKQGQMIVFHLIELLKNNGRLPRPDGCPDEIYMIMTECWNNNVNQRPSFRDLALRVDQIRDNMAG
Description: In vitro kinase activity assay (PKLight), JAK2 V617F mutant. It is filed as biochemical. The conditions noted are these: recombinant JAK2 V617F mutant, poly(Glu,Ala,Tyr) substrate, 0.2 μM ATP. Here is the method: as §2

In experiment [9] the target is T4, CDK2/CyclinA (Homo sapiens, UniProt P24941).
T4 construct: purchased Invitrogen PV3267
Description: In vitro kinase activity assay (PKLight), CDK2/Cyclin A. The conditions noted are these: recombinant CDK2/Cyclin A, RbING substrate, 0.5 μM ATP, 2 hr. It counts as biochemical. How it is done:
as §2

By GI50 is commonly meant the concentration that inhibits growth by half. By IC50 is commonly meant the point on the concentration scale where inhibition reaches its midpoint.

T1 sequence (O60674 whole entry): as the sequence (O60674 whole entry V617F) above, with F617V counted along it

On to `CN1C/C=C/CCOc2cccc(c2)-c2ccnc(n2)Nc2cccc(c2)C1` [Compound 1], for which the GI50 in experiment [1], in experiment [2], in experiment [4], in experiment [5] and in experiment [7] was at most 1 µM in each case. Moreover, the IC50 in experiment [3], in [6] and in experiment [8] was at most 1 µM throughout.
As to `O=C1NC/C=C/COCc2cccc(c2)Nc2nccc(n2)-c2cccc1c2` [Compound 17], the GI50 in experiment [1], in [2], in [4], in experiment [5] and in experiment [7] was over 5 µM throughout. Besides, the IC50 in experiment [9] was over 5 µM; in [3] it was at most 1 µM; in experiment [6], 1 to 5 µM; in experiment [8], at most 1 µM.
As for `CN1Cc2cccc(c2)Nc2nccc(n2)-c2cccc(c2)OCCC2CC2C1` (centres unmarked) [Compound 20], the IC50 in experiment [9], in experiment [3], in experiment [6] and in experiment [8] was at most 1 µM throughout. For the same molecule, the GI50 in experiment [4] and in experiment [7] was at most 1 µM each time.
Regarding `CCN(CC)CCOc1ccc2cc1CN(C)C/C=C/CCOc1cccc(c1)-c1ccnc(n1)N2` [Compound 32], the GI50 in experiment [1], in [2], in [4], in experiment [5] and in [7] was at most 1 µM each time. Besides, the IC50 in experiment [9], in [3], in experiment [6] and in [8] was at most 1 µM each time.
Turning to `CN1C/C=C/CCOc2cc(F)cc(c2)-c2ccnc(n2)Nc2cccc(c2)C1` [Compound 35], the GI50 in [1], in experiment [2], in [4], in experiment [5] and in experiment [7] was at most 1 µM throughout. Besides, the IC50 in experiment [9], in [3] and in [6] was at most 1 µM each time.
`C1=C/CN(C2CC2)Cc2cc(ccc2OCCN2CCOCC2)Nc2nccc(n2)-c2cccc(c2)OCC/1` [Compound 36]: the GI50 in [1] was at most 1 µM; in experiment [2], 1 to 5 µM; in [4], 1 to 5 µM; in [5] it was over 5 µM; in experiment [7], at most 1 µM. The IC50 in experiment [9], in experiment [3], in [6] and in experiment [8] was at most 1 µM throughout.
`CN1C/C=C/CCOc2cccc(c2)-c2ccnc(n2)Nc2ccc(N3CCOCC3)c(c2)C1` [Compound 39]: the GI50 in experiment [1], in experiment [2] and in experiment [7] was at most 1 µM in each case. In addition, the concentration for half-maximal inhibition (IC50) in [9], in [3], in [6] and in [8] was at most 1 µM throughout.
As to `CN1C/C=C/CCOc2cccc(c2)-c2ccnc(n2)Nc2ccc(OCCN3CCCC3)c(c2)C1` [Compound 40], the GI50 in experiment [1], in experiment [2], in experiment [4], in [5] and in [7] was at most 1 µM each time. Moreover, the IC50 in experiment [9], in experiment [3], in experiment [6] and in experiment [8] was at most 1 µM each time.
Consider `CN1C/C=C/CCOc2cc(F)cc(c2)-c2ccnc(n2)Nc2ccc(OCCN3CCCC3)c(c2)C1` [Compound 52], for which the GI50 in experiment [1], in [2], in experiment [4], in experiment [5] and in experiment [7] was at most 1 µM in each case. Also, the IC50 in experiment [9], in experiment [3], in experiment [6] and in [8] was at most 1 µM throughout.
